According to a compilation of properties of binary mixtures (doi:10.1016/j.molliq.2022.119944):

Assay: xn = mol fraction of the nth substance listed
Conditions: 101.3 kPa

C=Cn1cc[n+](CCCC)c1.NCC(=O)[O-] + O
Conditions	electrical conductivity [S/m]	viscosity [mPa·s]
293.15 K, x1 = 0.1	–	7.17
293.15 K, x1 = 0.3	–	23.93
293.15 K, x1 = 0.7	–	403
293.15 K, x1 = 1	–	11700
303.15 K, x1 = 0.1	1.04	7.07
303.15 K, x1 = 0.3	1.75	19.67
303.15 K, x1 = 0.7	1.58	282
303.15 K, x1 = 0.9	0.412	1068
308.15 K, x1 = 0.3	1.94	–
308.15 K, x1 = 0.5	2.95	–
313.15 K, x1 = 0.1	1.19	6.73
313.15 K, x1 = 0.3	2.16	14.44
313.15 K, x1 = 0.5	3.34	33.65
313.15 K, x1 = 0.7	2.31	199
313.15 K, x1 = 0.9	0.653	730
313.15 K, x1 = 1	0.013	5900
318.15 K, x1 = 0.1	1.29	–
318.15 K, x1 = 0.3	2.44	–
318.15 K, x1 = 0.7	2.87	–
318.15 K, x1 = 0.9	0.89	–
318.15 K, x1 = 1	0.018	–
323.15 K, x1 = 0.1	1.35	6.71
323.15 K, x1 = 0.3	2.63	11.28
323.15 K, x1 = 0.5	4.09	28.63
323.15 K, x1 = 0.7	3.25	168
323.15 K, x1 = 0.9	1.2	570
323.15 K, x1 = 1	0.021	3100
333.15 K, x1 = 0.1	–	5.87
333.15 K, x1 = 0.5	–	28.1
333.15 K, x1 = 0.7	–	156
333.15 K, x1 = 0.9	–	540
343.15 K, x1 = 0.1	–	5.29
343.15 K, x1 = 0.5	–	22.04
343.15 K, x1 = 0.7	–	132
343.15 K, x1 = 0.9	–	540
353.15 K, x1 = 0.1	–	5.08
353.15 K, x1 = 0.3	–	9.83
353.15 K, x1 = 0.7	–	104.8

C=C[n+]1ccn(CCCC)c1.N[C@@H](Cc1c[nH]cn1)C(=O)[O-] + O
Conditions	electrical conductivity [S/m]	viscosity [mPa·s]
293.15 K, x1 = 0.1	–	2.55
293.15 K, x1 = 0.3	–	10.63
293.15 K, x1 = 0.5	–	26.91
293.15 K, x1 = 0.7	–	92.2
293.15 K, x1 = 0.9	–	1475
293.15 K, x1 = 1	–	8300
303.15 K, x1 = 0.1	2.65	2.35
303.15 K, x1 = 0.5	3.61	21.73
303.15 K, x1 = 0.7	2.67	59.5
303.15 K, x1 = 1	0.07	5300
308.15 K, x1 = 0.1	2.94	–
308.15 K, x1 = 0.3	3.79	–
308.15 K, x1 = 0.5	3.85	–
308.15 K, x1 = 0.7	2.95	–
308.15 K, x1 = 0.9	0.75	–
308.15 K, x1 = 1	0.089	–
313.15 K, x1 = 0.1	3.12	2.08
313.15 K, x1 = 0.3	4.12	5.88
313.15 K, x1 = 0.5	4.08	17.2
313.15 K, x1 = 0.7	3.27	43.6
313.15 K, x1 = 0.9	0.99	1026
313.15 K, x1 = 1	0.123	2700
318.15 K, x1 = 0.1	3.32	–
318.15 K, x1 = 0.3	4.38	–
318.15 K, x1 = 0.5	4.37	–
318.15 K, x1 = 0.7	3.6	–
318.15 K, x1 = 0.9	1.27	–
318.15 K, x1 = 1	0.162	–
323.15 K, x1 = 0.1	3.58	1.7
323.15 K, x1 = 0.3	4.7	4.81
323.15 K, x1 = 0.5	4.58	14.68
323.15 K, x1 = 0.7	3.83	33.63
323.15 K, x1 = 0.9	1.64	930
333.15 K, x1 = 0.1	–	1.46
333.15 K, x1 = 0.5	–	14.17
333.15 K, x1 = 0.7	–	29.24
333.15 K, x1 = 0.9	–	550
333.15 K, x1 = 1	–	810
343.15 K, x1 = 0.1	–	1.04
343.15 K, x1 = 0.3	–	4
343.15 K, x1 = 0.5	–	13.4
343.15 K, x1 = 0.9	–	327
343.15 K, x1 = 1	–	500
353.15 K, x1 = 0.1	–	0.95
353.15 K, x1 = 0.3	–	3.68
353.15 K, x1 = 0.7	–	29
353.15 K, x1 = 0.9	–	116
353.15 K, x1 = 1	–	331
